Where two headings read alike, the source gives them in different places.
How the values were obtained:
[1] = Isothermal titration calorimetry, binding to HS-fragments; conditions: ITC; for Ka binding constant / Kd / N stoichiometry of binding / ΔG Gibbs free energy / ΔS entropy change: 2 mM peptide titrated 20 times 1.5 μl into 100 μg/ml HS
Procedure: (§1) Isothermal titration calorimetry (ITC) experiments were performed as previously described. Briefly, the binding of peptide 19–2.5 to heparanase or HS-fragments was recorded by measuring the enthalpy change of the reaction at 37°C. For this, a total of 100 μg/ml heparanase (R&D Systems Europe Ltd., Abingdon, United Kingdom) and 200 μg/ml HS-fragments (H7640 Sigma-Aldrich, St. Louis, MO, USA) were dispersed into the calorimetric cell, and 2 mM peptide 19–2.5 was titrated to this dispersion stepwise in 3 μl portions. After exploring experiments, the concentration of HS was 100 μg/ml titrated with 1.5 μl of peptide 19–2.5 (2 mM) 20 times at 37°C.
(§2) Fig 5 Isothermal titration calorimetry (ITC). For the ITC experiments, 2 mM peptide 19–2.5 was titrated to this dispersion stepwise in 3 μl portions into (A) 200 μg/ml heparan sulfate-fragments (HS) and (B) 100 μg/ml heparanase (Hep). In each titration, the resulting heat signals P were recorded (peak downwards are exothermic, peaks upwards endothermic reactions) against time (min) and presented in the top parts of Fig 5A and 5B. The integrated enthalpy changes ΔH versus [peptide]:[HS-fragments] (A) and [peptide]:[heparanase] (B) concentration ratios of the single titrations are illustrated in the bottom parts of Fig 5A and 5B.

heparanase [2] = test: Relative heparanase mRNA expression in organs (qPCR), CLP septic mice; format: in vivo, murine; conditions: 24 h after CLP
Procedure: The murine model of polymicrobial sepsis was divided into three steps as described before. Briefly, in a first step 12 NMRI mice underwent a catheterization procedure under general (isoflurane 1% to 2% in oxygen/air mix with a FiO2 of 0.3) and local (0.2 ml lidocaine 2%) anesthesia. A central vein catheter (PE-tube, self-made) was implanted in the jugular vein. After further local infiltration with lidocaine, the neck was closed by single suture. To prevent hypothermia all animals were kept on a heating pad throughout the surgical procedure. Mice were transferred back into the cage to rest for 48h. The i.v.-line was connected to the syringe pump at a rate of 100 μl/h (NaCl 0.9%).
In a second step, general and local anesthesia for cecal ligature and puncture (CLP) was performed as described above. The animal were transferred to the cage and reconnected with the i.v.-line. Depending on the group, peptide 19–2.5 infusion (20 μg/ml, 100 μl/h) or NaCl 0.9% infusion (100 μl/h) was started.
Finally, in a third step all animals were killed 24 h after CLP. Therefore, the animals were anesthetized as described above, brought to a prone position and the abdomen and thorax were opened. Blood was sampled in pre-citrated syringes. Directly after killing the animal under general anesthesia by cervical dislocation heart, liver, lung, kidney and spleen were snap-frozen in liquid […] until further procedures.
As described before, total RNA was extracted from snap-frozen tissue (RNeasy Mini Kit, Qiagen, Hilden, Germany) and reverse transcribed to cDNA (Quanti Tec, Rev Transcription Kit, Qiagen, Hilden, Germany). cDNA was analyzed by quantitative real-time PCR performed with Power SYBR Green PCR Master Mix on a StepOnePlus (all Applied Biosystems, Foster City, CA, USA) using a mouse specific primer (biomers, Ulm, Germany) for heparanase 5’-[…]-3’ (for) and 5’-[…]-3’ (rev). Beta-actin was used as an endogenous normalization control: 5’-[…]-3’ (for), 5’-CGG ATGTCAACGTCACACTT-3’ (rev). […]
All data are given as mean ± standard deviation (SD). As described recently, the PCR-derived mRNA expressions were analyzed using a relative expression software tool (REST, (http://www.gene-quantification.de/rest.html, rest-mcs-beta-9august 2006) performing a randomization test. This tool avoids assumptions on distributions and applies a pair wise fixed reallocation randomization test, which reallocates control and sample groups (= pair wise fixed reallocation). The expression ratios are calculated on the basis of the mean crossing point (CP) values for reference and target genes. We used a multiple t-test with Holm-Šídák correction when comparing differences between groups. […]

heparanase [3] = test: Plasma heparanase activity, human plasma, peptide added ex vivo; format: biochemical; conditions: 20 μg/ml peptide ex vivo, Fig 3B
Procedure: As described before, we used plasma from 18 adult individuals within 24 hours after presentation with septic shock, according to the ACCP/SCCM definition after written informed consent of patients or their legal representative. Individuals below 18 years were excluded. Furthermore, we used plasma from healthy human donors after written informed consent (n = 10). No personal or identifying information was collected from study participants. All samples are stored in the RWTH centralized Biomaterial Database (RWTH cBMB) of the University Hospital RWTH Aachen. The local ethics committee (University Hospital RWTH Aachen, EK 206_09) approved this study before inclusion of the first individual.
Heparanase activity in human and murine plasma was quantified using the commercial available Heparanase Assay Kit (No.: Ra001-BE-K, AMS Biotechnology, Oxon, United Kingdom) according to the manufacturer’s instructions.

heparanase [4] = test: Isothermal titration calorimetry, binding to heparanase; conditions: ITC, 37°C
Procedure: as §1, §2

[5] = 37°C, 2 mM peptide in 3 μl portions into 200 μg/ml HS-fragments, Fig 5A
[6] = 2 mM peptide in 3 μl portions into 100 μg/ml heparanase, Fig 5B
[7] = heparanase (Fig 5B) compared with HS-fragments (Fig 5A)

With “peptide 19–2.5: synthetic antimicrobial peptide 19–2.5 belongs to the class of synthetic anti-lipopolysaccharide peptides (SALP = synthetic anti-LPS peptides)” the “[Peptide 19–2.5]:[HS] weight ratio at saturation” value [1, 5] was ~0.6, the “heat of reaction on titration to HS-fragments” value [1, 5] was “high exothermic reaction” and the Ka binding constant ([1]; 37°C, experiment 1) was 1.93e+06 M⁻¹. For the same substance, the Kd ([1]; 37°C, experiment 1) was 518 nM, the “N stoichiometry of binding” value ([1]; 37°C, experiment 1) was 0.511 w/w ratio and the “ΔG Gibbs free energy” value ([1]; 37°C, experiment 1) was -8.918 kcal/mol. The ΔS entropy change ([1]; 37°C, experiment 1) was 4.46 cal/mol/K, the Ka binding constant ([1]; 37°C, experiment 2) was 1.52e+07 M⁻¹ and the Kd ([1]; 37°C, experiment 2) was 65.7 nM. The “N stoichiometry of binding” value ([1]; 37°C, experiment 2) was 0.475 w/w ratio, the “ΔG Gibbs free energy” value ([1]; 37°C, experiment 2) was -10.192 kcal/mol and the ΔS entropy change ([1]; 37°C, experiment 2) was 6.42 cal/mol/K. The Ka binding constant ([1]; 37°C, experiment 3) was 1.55e+07 M⁻¹, the Kd ([1]; 37°C, experiment 3) was 64.5 nM and the “N stoichiometry of binding” value ([1]; 37°C, experiment 3) was 0.547 w/w ratio. For the same substance, the “ΔG Gibbs free energy” value ([1]; 37°C, experiment 3) was -10.201 kcal/mol, the ΔS entropy change ([1]; 37°C, experiment 3) was 10.8 cal/mol/K and the Ka binding constant ([1]; 37°C, experiment 4) was 1.2e+07 M⁻¹. The Kd ([1]; 37°C, experiment 4) was 83.3 nM, the “N stoichiometry of binding” value ([1]; 37°C, experiment 4) was 0.534 w/w ratio and the “ΔG Gibbs free energy” value ([1]; 37°C, experiment 4) was -10.046 kcal/mol. For the same substance, the ΔS entropy change ([1]; 37°C, experiment 4) was 6.77 cal/mol/K, the Ka binding constant ([1]; 37°C, mean of n = 4) was 1.12e+07 M⁻¹ and the “N stoichiometry of binding” value ([1]; 37°C, mean of n = 4) was 0.520 w/w ratio. For the same substance, the “ΔG Gibbs free energy” value ([1]; 37°C, mean of n = 4) was -9.839 kcal/mol, the ΔS entropy change ([1]; 37°C, mean of n = 4) was 7.11 cal/mol/K and the Kd ([1]; 37°C, mean of n = 4, read-out: Kd) was 89.2 nM. For the same substance, the “titration curve shape with HS-fragments” value ([1]; Fig 5A) was “S-shaped curve with saturation characteristic for a complex formation”, the “heparanase mRNA expression under peptide treatment” value (heparanase [2]; all investigated organ tissues (heart, liver, lung, kidney, spleen), CLP-mice, 20 μg/ml, 100 μl/h i.v., Fig 2) was “decreased heparanase mRNA expression in all investigated organ tissues” and the “relative heparanase mRNA expression, untreated CLP-mice vs peptide-treated” value (shortened to “relative heparanase mRNA expression”) (heparanase [2]; kidney, increase in untreated CLP-mice vs peptide 19–2.5 (20 μg/ml, 100 μl/h i.v., n = 6 per group), normalized to ß-actin, mean ± SD, Fig 2E) was 5.7±1.9 fold. The “relative heparanase mRNA expression” value (heparanase [2]; lung, liver, spleen, heart and kidney, result in words, 20 μg/ml, 100 μl/h i.v., n = 6 per group, Fig 2A–2E, **p < 0.01, ***p < 0.0001) was “significantly higher in untreated CLP-mice compared to mice treated with peptide 19–2.5”, the “relative heparanase mRNA expression” value (heparanase [2]; lung, increase in untreated CLP-mice vs peptide 19–2.5 (20 μg/ml, 100 μl/h i.v., n = 6 per group), normalized to ß-actin, mean ± SD, Fig 2A) was 2.2±2.2 fold and the “plasma heparanase activity after ex vivo addition of peptide” value (heparanase [3]; plasma of healthy humans (n = 10), n.s.) was “did not alter heparanase activity”. For the same substance, the “plasma heparanase activity after ex vivo addition of peptide” value (heparanase [3]; plasma of septic shock patients (n = 18)) was “significantly lowered heparanase activity”, the “enthalpy change (ΔH) at the beginning of the titration” value (heparanase [4]; [6]) was “approximately −25 kJ/mol” and the “heat of reaction on titration to heparanase” value (heparanase [4]; [6]) was “exothermic reaction”. The “ΔH value at high peptide concentrations” value (heparanase [4]; [6]) was “around 12 kJ/mole”, the “binding constant for heparanase” value (heparanase [4]; 2 mM peptide into 100 μg/ml heparanase, Fig 5B) was “does not allow calculating a binding constant” and the “saturation character of ΔH values” (heparanase [4]; 2 mM peptide into 100 μg/ml heparanase, no sigmoidal curve, Fig 5B) was “do not have a saturation character”. For the same substance, the “peptide concentrations at which the processes take place vs HS-fragments” value (heparanase [4]; [7]) was “orders of magnitude higher than those for the interaction with HS-fragments” and the “ΔH values at the beginning of the titration vs HS-fragments” value (heparanase [4]; [7]) was “much lower than those for the HS-fragments titration”.
